{"source": "patent US20250333370A1", "about": "“METHOD FOR EXTRACTING 3,5-O-DICAFFEOYLQUINIC ACID FROM HUANGSHAN GONGJU AND ITS APPLICATION IN DRUGS FOR PROTECTING AGAINST ALCOHOLIC LIVER DAMAGE” (Hefei University of Technology, priority 2024, published 2025)", "key": {"[1]": {"system": "α-glucosidase", "conditions": "studies have shown; cited from earlier work"}, "[2]": {"conditions": "studies have shown; cited from earlier work"}, "[3]": {"system": "alcohol-induced AML-12 cells", "experiment": "Determination of MDA, SOD, CAT and GSH content (kits)", "type": "cell-based, mouse", "conditions": "260 mM alcohol", "source_text": "Excessive ROS in cells can cause oxidative reactions in proteins and unsaturated fatty acids. MDA is the final product of the oxidation of polyunsaturated fatty acids and is a marker of lipid peroxidation in cells, which is widely used in studies on oxidative stress. SOD, CAT, and GSH are important antioxidant enzymes in the body and play an important role in the body's systematic resistance to oxidative stress. […] After trypsin digestion and PBS washing, the MDA, SOD, CAT, and GSH content in the cells are detected according to the guidance of corresponding kits."}, "[4]": {"system": "alcohol-damaged AML-12 cells", "experiment": "MTT cell survival, ameliorative effect on cell alcohol damage (260 mM alcohol)", "type": "cell-based, mouse", "conditions": "pretreatment 24 hours, then 260 mM alcohol 24 hours", "protocol": "Log-growing AML-12 cells are collected and digested, and then seeded into a 96-well plate at a density of 0.8×10^5 cells/mL per well. After 24 hours of cell proliferation, the control (and model) group is incubated with 100 μL of medium for 48 hours; the 3,5-O-dicaffeoylquinic acid treatment group is incubated with different concentrations of 3,5-O-dicaffeoylquinic acid for 24 hours, and the original medium is discarded; the cells (in model and drug treated group) are incubated in 100 μL of medium containing 260 mM alcohol for 24 hours. The absorbance measurement method is the same as the item 2 above.\nCell survival rate is calculated using the following formula: […]"}, "[5]": {"system": "focal cerebral ischemia-reperfusion injury", "conditions": "rats; studies have shown; cited from earlier work"}, "[6]": {"system": "alcohol-induced AML-12 cells", "experiment": "ROS content determination (DCFH-DA, fluorescence microscope and flow cytometer)", "type": "cell-based, mouse", "conditions": "260 mM alcohol", "protocol": "(§1) AML-12 cells are treated with drugs (100, 200, 400 μg/mL) for 24 h, and then treated with 260 mM alcohol for 24 h. After trypsin digestion and PBS washing, the probe from the ROS kit is added. First, incubation is conducted with 1 mL of DCFH-DA (diluted in serum-free DMEM) at 37° C. for 20 min. The supernatant is discarded after centrifugation, and the remaining is washed three times and resuspended in PBS. 10 μL of the resuspension is observed under a fluorescence microscope, and is further detected under a flow cytometer."}, "[7]": {"system": "AML-12 cells", "experiment": "MTT cell survival, toxic effect of 3,5-O-dicaffeoylquinic acid on cells", "type": "cell-based, mouse", "conditions": "for cell survival rate: AML-12 cells, 24 hours, MTT", "protocol": "AML-12 cells, mouse normal liver cells; 3-(4,5-dimethylthiazol-2-yl)-2,5-diphenyl-2H-tetrazolium-3-bromide (MTT), dimethyl sulfoxide (DMSO), reactive oxygen species (ROS) kit, superoxide dismutase (SOD) kit, malondialdehyde (MDA) kit, glutathione (GSH) kit; high-speed centrifuge, microplate reader, etc.\nLogarithmically growing AML-12 cells are seeded into 96-well plates at a density of 0.8×10^5 cells/mL, and 100 μL of cell suspension is added to each well and incubated for 24 hours. In an alcohol treatment group, alcohol (0-1600 mM, DMEM dilution) is added to the incubator for 24 hours. In a 3,5-O-dicaffeoylquinic acid treatment group, 100 μL of 3,5-O-dicaffeoylquinic acid (100-1600 μg/mL, DMEM dilution) is added to the incubator for 24 hours. 120 μL of MTT (1 mg/mL) is added to each well and incubated for 4 h. The reaction solution is discarded; 150 μL DMSO is added, and OD value is measured at a wavelength of 490 nm after shaking for 10 minutes in the dark."}, "[8]": {"system": "alcohol-induced AML-12 cells", "experiment": "Apoptosis and necrosis after alcohol damage (Hoechst, fluorescence microscope and flow cytometer)", "type": "cell-based, mouse", "conditions": "260 mM alcohol", "protocol": "as §1, with “washing,” for “washing, the”, “an apoptosis detection” for “the ROS”, “5 μL Hoechst” for “1 mL of DCFH-DA”, “PBS)” for “serum-free DMEM)”, “0°” for “37°”"}, "[9]": {"conditions": "400 μg/mL pretreatment, fluorescence microscope"}}, "data": [{"compound": "O=C(C=Cc1ccc(O)c(O)c1)OC1CC(O)(C(=O)O)CC(OC(=O)C=Cc2ccc(O)c(O)c2)C1O", "note": "(single isomer, unassigned) [3,5-O-dicaffeoylquinic acid]", "values": [{"measurement": "α-glucosidase inhibition", "setting": "[1]", "value": "inhibits"}, {"measurement": "antioxidant effects", "setting": "[2]", "value": "certain antioxidant effects"}, {"measurement": "MDA content in cells, concentration of best effect", "setting": "[3]; 200 μg/mL pretreatment", "value": "most significant effect"}, {"measurement": "GSH content", "setting": "[3]; 400 μg/mL pretreatment, increases from 53.39±2.16 mg/g protein", "value": "82.14±1.67", "unit": "mg/g protein"}, {"measurement": "activity of CAT in cells", "setting": "[3]; 100-600 μg/mL pretreatment", "value": "significantly restore"}, {"measurement": "activity of SOD in cells", "setting": "[3]; 100-600 μg/mL pretreatment", "value": "significantly restore"}, {"measurement": "MDA content in cells", "setting": "[3]; pretreatment at different concentrations", "value": "significantly reduces"}, {"measurement": "increase of cell survival rate compared with the model group", "setting": "[4]; 400 μg/mL, highest cell survival rate", "value": 19.90, "unit": "%"}, {"measurement": "survival rate of alcohol-damaged AML-12 cells compared with model group", "setting": "[4]; 100-400 g/mL (so in the source)", "value": "significantly increase"}, {"measurement": "focal cerebral ischemia-reperfusion injury", "setting": "[5]", "value": "can mitigate"}, {"measurement": "ROS fluorescence intensity of the cells compared to the alcohol-treated group (model group)", "setting": "[6]; [9]", "value": "significantly reduces"}, {"measurement": "fluorescence intensity of ROS versus model group, dependence on drug concentration", "setting": "[6]; 100, 200, 400 μg/mL pretreatment, fluorescence microscope", "value": "gradually weakens with the increase of drug concentration"}, {"measurement": "ROS peak fluorescence intensity, flow cytometry", "setting": "[6]; pretreatment with different concentrations, as the drug concentration increases", "value": "shifts significantly to the right"}, {"measurement": "cell survival rate", "setting": "[7]; 0-800 μg/mL", "value": "increases significantly"}, {"measurement": "cell survival rate", "setting": "[7]; 1600 μg/mL, P<0.05", "value": "decreases significantly"}, {"measurement": "toxicity to AML-12 cells", "setting": "[7]; concentration range of 0-800 μg/mL", "value": "non-toxic"}, {"measurement": "fluorescence intensity of apoptosis compared with the alcohol-treated group", "setting": "[8]; [9]", "value": "significantly reduces"}, {"measurement": "cell survival rate (apoptosis/necrosis flow cytometry)", "setting": "[8]; pretreatment with different concentrations, with the increase in drug concentration", "value": "gradually increases"}]}]}
